Experimental data published in patent US20190060384A1, “COMPOSITION FOR TREATMENT OR PREVENTION OF LUNG CANCER AND A METHOD THEREFORE” (priority 2017, published 2019).

Legend:
[1] = male, ICR, mouse, in vivo, po, 28 days
Excerpt: (§2) Day 28; mortality, clinical symptoms, change in body weight, autopsy findings, hematological (14 items; Table 18) and hematochemical (20 items; Table 19) changes, histopathological changes (23 organs: brain cerebrum, cerebellum and bulbar, heart, thymus, lung, testis, epididymis, kidney, adrenal gland, spleen, liver, pancreas, alimentary tract esophagus, fundic portion, pyloric portion, duodenum, jejunum, ileum, cecum, colon and rectum, submandibular lymph node), and changes in content of liver lipid peroxidation and antioxidant defense system glutathione (GSH), and catalase (CAT) and superoxide dismutase (SOD) activities.

[2] = test system: NCI-H520 cell xenograft nude mice; experiment: NCI-H520 xenograft nude mice: immune organ weights and histopathology (spleen, submandibular lymph node); format: in vivo, athymic nude mice
[3] = test system: NCI-H520 cell xenograft nude mice; experiment: NCI-H520 xenograft nude mice: splenic cytokine contents (TNF-α, IL-1β, IL-10); format: in vivo, athymic nude mice
[4] = test system: NCI-H520 cell xenograft nude mice; experiment: NCI-H520 xenograft nude mice: tumor-related cachexia (body weight, periovarian fat pad); format: in vivo, athymic nude mice
NCI-H520 tumor mass = experiment: NCI-H520 xenograft nude mice: tumor mass histopathology and immunohistochemistry; format: in vivo, athymic nude mice
Excerpt: (§1) (1) Anticancer effects: Changes in tumor volume, tumor weight, tumor cell volume in a formed mass, and apoptotic cell percentages, and changes in immunoreactivities of caspase-3, PARP, NT, 4-HNE, CD31, Ki-67, COX-2, iNOS, and TNF-α in the formed mass

NCI-H520 cells = experiment: MTT cytotoxicity (cell viability)
Excerpt: Further, in order to observe the effects on tumor-related cachexia, a change in periovarian fat pad weight and a change in serum IL-6 content were observed, the changes in thickness of periovarian fat pad and diameter of adipocytes were each histopathologically observed, and in a tumor mass formed, the immunoreactivities of cleaved caspase-3 and poly(ADPribose) polymerase (PARP) as apoptotic markers, nitrotyrosine (NT) as an inducible nitric oxide synthases (iNOS)-related oxidative stress marker, 4-hydroxynonenal (4-HNE) as a lipid peroxidation marker, CD-31 and Ki-67 as angiogenic and cell proliferation markers, cyclooxygenase-2 (COX-2) as an inflammatory and angiogenic factor, and iNOS and TNF-α as cytokines related to immune activity were each observed by avidin-biotin-peroxidase (ABC)-based immunohistochemical methods.

[5] = test system: liver lipid peroxidation, GSH, CAT, SOD; settings: mouse, in vivo, po
Excerpt: as §2

[6] = test system: NCI-H520 non-small cell lung cancer cell xenograft; experiment: NCI-H520 xenograft nude mice: tumor volume and tumor weight; format: in vivo, athymic nude mice
Excerpt: as §1

[7] = Pharmacokinetics of gefitinib after repeated oral Lonicera flos; format: in vivo, Sprague-Dawley rats; settings: for concentration at 0.5 h: 0.50 h; for AUC(0-t) / Cmax / Tmax / half-life: po, average
[8] = test system: NCI-H520 cell xenograft nude mice; experiment: NCI-H520 xenograft nude mice: serum IL-6 and IFN-γ contents; format: in vivo, athymic nude mice; settings: vs tumor xenograft control, 35 days
Excerpt: (3) Effects of suppressing tumor-related cachexia: Changes in body weight, periovarian fat pad weight, and serum IL-6 content and histological change in a periovarian fat pad

[9] = mouse, in vivo, po
Excerpt: as §2

[10] = test system: NCI-H520 cell xenograft nude mice; experiment: NCI-H520 xenograft nude mice: splenic and peritoneal NK cell activity; format: in vivo, athymic nude mice; settings: vs tumor xenograft control, 35 days
[11] = NCI-H520 xenograft nude mice, oral once daily 35 days
[12] = vs tumor xenograft control, 35 days
[13] = NCI-H520 xenograft nude mice, baseline
[14] = tumor mass, oral once daily 35 days
[15] = male, Sprague-Dawley, rat, plasma, oral, 10 mg/kg, gefitinib 10 mg/kg oral, control (saline) rats
[16] = male, Sprague-Dawley, rat, plasma, oral, gefitinib 10 mg/kg oral after Lonicera flos 300 mg/kg oral 15 days
[17] = male, Sprague-Dawley, rat, plasma, 10 mg/kg, gefitinib 10 mg/kg oral, Control
[18] = male, Sprague-Dawley, rat, plasma, 10 mg/kg, gefitinib 10 mg/kg oral, Lonicera japonica group (15 days pre-treatment)

## COc1cc2ncnc(Nc3ccc(F)c(Cl)c3)c2cc1OCCCN1CCOCC1 [Gefitinib, gefitinib]
[1]
  Histopathology: Fundus Normal: 5/7
  Histopathology: Fundus fCV 1+ (local cysts): 2/7
  Histopathology: Liver IF 1+ (inflammatory cell infiltration): 0/7
  Histopathology: Liver IF-FN 1+ (infiltration with local necrosis): 0/7
  Histopathology: Liver IF-FN 2+: 1/7
  Histopathology: Liver IF-FN 3+: 6/7
  Histopathology: Liver Normal: 0/7
  Histopathology: Lung CG 1+ (hyperemia): 1/7
  Histopathology: Lung Normal: 6/7
  Histopathology: Lymph nodes Normal: 0/7
  Histopathology: Lymph nodes dHP 1+ (diffused lymphocyte hyperplasia): 0/7
  Histopathology: Lymph nodes dHP 2+: 4/7
  Histopathology: Lymph nodes dHP 3+: 3/7
  Histopathology: Others Normal: 7/7
  Histopathology: Spleen Normal: 0/7
  Histopathology: Spleen rHP 1+ (red pulp lymphocyte hyperplasia): 0/7
  Histopathology: Spleen rHP 2+: 3/7
  Histopathology: Spleen rHP 3+: 4/7
[2]; [11]
  Spleen Total thickness: 1097.00 ± 237.39a μm/central regions
  Spleen White pulp diameters: 334.72 ± 47.47e μm/white pulp
  Spleen White pulp numbers: 6.13 ± 1.81e /mm2
  Spleen absolute weight: 0.059 ± 0.010a
  Submandibular lymph node Cortex lymphoid cell follicle numbers: 7.50 ± 2.39a /mm2
  Submandibular lymph node Cortex thickness: 155.92 ± 34.47a μm/lymph node
  Submandibular lymph node Total thickness: 441.48 ± 114.06a μm/central regions
  Submandibular lymph node absolute weight: 0.003 ± 0.001a
[2]; vs tumor xenograft control
  change in cortex lymphoid cell follicle numbers: 15.38%
  change in submandibular lymph node total thickness: −8.92%
  change in total splenic thickness: −1.17%
[2]; [12]
  change in splenic absolute weight: −1.46%
  change in submandibular lymph node absolute weight: 4.00%
[3]; [11]
  Splenic Interleukin-1β content: 7.82 ± 2.32 days
  Splenic Interleukin-10 content: 23.39 ± 12.60a
[3]; [12]
  change in content of splenic IL-1β: −3.08%
  change in content of splenic IL-10: −7.27%
  change in content of splenic TNF-α: −4.79%
[4]; NCI-H520 xenograft nude mice, 35 days, based on actual body weight
  Body weight gains: −0.40 ± 1.01ac g
[4]; [13]
  Body weights At first administration: 18.15 ± 1.42 g
[4]; [11]
  Actual body weights (excluding tumor weight): 17.75 ± 1.11ac g
  Body weights At sacrifice: 19.08 ± 1.14ac g
  Periovarian fat pad White adipocyte diameters: 13.52 ± 3.46 μm
  Periovarian fat pad absolute weight: 0.008 ± 0.002e
[4]; vs tumor xenograft control
  change in accumulated periovarian fat pad thickness: −11.13%
  change in average periovarian white fat pad cell diameter: 4.41%
[4]; [12]
  change in periovarian fat pad absolute weight: −1.52%
[4]; vs tumor xenograft control, final sacrifice date
  change in actual body weight excluding the tumor weight: −8.18%
NCI-H520 tumor mass; [14]
  Immunoreactive cell percentages: 4-hydroxynonenal: 29.12 ± 8.55a %/tumor cells
  Immunoreactive cell percentages: CD31: 29.90 ± 5.37a %/tumor cells
  Immunoreactive cell percentages: Cleaved caspase-3: 25.77 ± 5.73d %/tumor cells
  Immunoreactive cell percentages: Cyclooxygenase-2: 56.48 ± 12.30 %/tumor cells
  Immunoreactive cell percentages: INOS: 5.34 ± 1.44 %/tumor cells
  Immunoreactive cell percentages: Ki-67: 45.34 ± 7.63a %/tumor cells
  Immunoreactive cell percentages: Nitrotyrosine: 32.93 ± 10.64d %/tumor cells
  Immunoreactive cell percentages: PARP: 22.27 ± 10.20d %/tumor cells
  Tumor cell volume: 54.48 ± 12.96a %/mm2
NCI-H520 tumor mass; vs tumor xenograft control
  change in proportion of the tumor tissue occupied by 4-HNE immunoreactive cells: 928.20%
  change in proportion of the tumor tissue occupied by CD31 immunoreactive cells: −41.30%
  change in proportion of the tumor tissue occupied by COX-2 immunoreactive cells: 6.37%
  change in proportion of the tumor tissue occupied by Ki-67 immunoreactive cells: −41.57%
  change in proportion of the tumor tissue occupied by NT immunoreactive cells: 368.85%
  change in proportion of the tumor tissue occupied by PARP immunoreactive cells: 673.85%
  change in proportion of the tumor tissue occupied by TNF-α immunoreactive cells: 417.98%
  change in proportion of the tumor tissue occupied by caspase-3 immunoreactive cells: 364.72%
  change in proportion of the tumor tissue occupied by iNOS immunoreactive cells: −11.83%
  change in proportion of the tumor tissue occupied by tumor cells: −30.68%
NCI-H520 cells; gefitinib 0.001 μM
  change in the viability of NCI-H520 cells vs vehicle control: −3.29%
NCI-H520 cells; gefitinib 0.01 μM
  change in the viability of NCI-H520 cells vs vehicle control: −7.47%
NCI-H520 cells; gefitinib 0.1 μM
  change in the viability of NCI-H520 cells vs vehicle control: −17.73%
NCI-H520 cells; gefitinib 1 μM
  change in the viability of NCI-H520 cells vs vehicle control: −29.55%
NCI-H520 cells; gefitinib 5 μM
  change in the viability of NCI-H520 cells vs vehicle control: −53.53%
NCI-H520 cells; gefitinib 10 μM
  change in the viability of NCI-H520 cells vs vehicle control: −62.71%
NCI-H520 cells; gefitinib 50 μM
  change in the viability of NCI-H520 cells vs vehicle control: −71.11%
[5]
  change in SOD activity in the liver tissue: −81.18%
  change in content of GSH in the liver tissue: −69.14%
  change in liver lipid peroxidation: 129.64%
[6]; [13]
  Tumor volume First administration [A]: 459.88 ± 129.50 mm^3
[6]; [11]
  Tumor mass absolute weight: 1.321 ± 0.191 g
  Tumor volume Sacrifice [B]: 2486.04 ± 480.24a mm^3
[6]; vs tumor xenograft group, 5 weeks
  change of the amount of change in tumor volume: −68.18%
[6]; vs tumor xenograft group, 35 days
  change in tumor absolute weight: −47.72%
[7]; [15]
  concentration at 0.5 h: 703 ng/mL
  concentration at 1 h: 805 ng/mL
  concentration at 3 h: 762 ng/mL
  concentration at 7 h: 824 ng/mL
  concentration at 10 h: 439 ng/mL
  concentration at 24 h: 70 ng/mL
[7]; [16]
  concentration at 0.5 h: 571 ng/mL
  concentration at 1 h: 645 ng/mL
  concentration at 3 h: 531 ng/mL
  concentration at 7 h: 579 ng/mL
  concentration at 10 h: 430 ng/mL
  concentration at 24 h: 53 ng/mL
[7]; male, Sprague-Dawley, rat, plasma, oral, gefitinib 10 mg/kg oral after Lonicera flos 300 mg/kg oral 15 days, […]
  concentration at […]: 274 ng/mL
[7]; [17]
  AUC(0-t): 10800 ng·h/mL
  Cmax: 921 ng/mL
  Tmax: 3.55 h
  half-life: 5.05 h
[7]; [18]
  AUC(0-t): 8740 ng·h/mL
  Cmax: 736 ng/mL
  Tmax: 2.89 h
  half-life: 4.84 h
[7]; orally administered, rats
  time of maximum plasma concentration after administration: about 4 hours
[8]
  change in serum IFN-γ content: −0.62%
  change in serum IL-6 content: 2.09%
[9]
  ALB: 1.39 ± 0.25a g/dL
  ALP: 107.00 ± 22.41 IU/L
  ALT: 215.00 ± 33.87d IU/L
  AST: 29.014 ± 23.57d IU/L
  BIL: 0.14 ± 0.05 mg/dL
  BUN: 18.19 ± 0.89 mg/dL
  CRE: 0.39 ± 0.18 mg/dL
  GLU: 92.43 ± 7.93 mg/dL
  Globulin: 3.73 ± 0.39a g/dL
  K: 9.97 ± 0.25 mmol/L
  PRO: 5.11 ± 0.19 g/dL
  TG: 195.71 ± 47.00 mg/dL
[10]
  change in peritoneal NK cell activity: −4.12%
  change in splenic NK cell activity: −6.16%
